The values that follow come from ChEMBL document CHEMBL6092194, “Development of membrane-targeting chalcone derivatives as antibacterial agents against multidrug-resistant bacteria” (Eur J Med Chem, 2024).

≈ marks a conversion by molar mass, not a printed value. Calls of active or inactive are those of the source. The rule behind the calls is not given here. Where only a bound is given, the exact number is not on record here.

The subject of one data set is Bacillus subtilis. The experiment in a line: Antibacterial activity against penicillin-susceptible Bacillus subtilis ATCC9372 by broth microdilution assay. It is filed as functional.
Data set [1] relates to Staphylococcus aureus. The experiment in a line: Antibacterial activity against Staphylococcus aureus ATCC43300 infected in sepsis mouse model assessed as reduction in liver inflammation at 5 mg/kg pre-infected with bacteria for 1 hrs followed by compound administration at 12 hrs interval for 2 days by H and E staining based analysis. It is filed as functional, organism-based. As to conditions: time 2.0 day.

The test system of the next data set is Pseudomonas aeruginosa. The experiment in a line: Antibacterial activity against penicillin-susceptible Pseudomonas aeruginosa ATCC27853 by broth microdilution method. It is filed as functional. A general note: In broth dilution the organism is exposed to a series of concentrations in liquid medium.
A further data set has as its system Klebsiella pneumoniae. The experiment in a line: Antibacterial activity against Klebsiella pneumoniae ATCC10031 by broth microdilution assay. In kind it is functional.
Another data set concerns Acinetobacter baumannii. The experiment in a line: Antibacterial activity against Acinetobacter baumannii ATCC19606 by broth microdilution assay. It is filed as functional.
Data set [2] relates to Staphylococcus aureus. The experiment in a line: Antibacterial activity against Staphylococcus aureus ATCC43300 infected in sepsis mouse model assessed as reduction in spleen damage at 5 mg/kg pre-infected with bacteria for 1 hrs followed by compound administration at 12 hrs interval for 2 days by H and E staining based analysis. It is filed as functional, organism-based. The following applies: time 2.0 day.

In data set [3] the test system is Staphylococcus aureus. The experiment in a line: Antibacterial activity against Staphylococcus aureus ATCC43300 infected in sepsis mouse model assessed as reduction in liver damage at 5 mg/kg pre-infected with bacteria for 1 hrs followed by compound administration at 12 hrs interval for 2 days by H and E staining based analysis. The following applies: time 2.0 day. It is filed as functional, organism-based.

In another data set the test system is Enterococcus faecalis. The experiment in a line: Antibacterial activity against vancomycin susceptible Enterococcus faecalis ATCC29212 by broth microdilution assay. It is filed as functional.
Data set [4] has as its system Staphylococcus aureus. The experiment in a line: Antibacterial activity against Staphylococcus aureus ATCC43300 infected in sepsis mouse model assessed as reduction in kidney damage at 5 mg/kg pre-infected with bacteria for 1 hrs followed by compound administration at 12 hrs interval for 2 days by H and E staining based analysis. In kind it is functional, organism-based. As to conditions: time 2.0 day.

Data set [5] relates to Staphylococcus aureus. The experiment in a line: Antibacterial activity against Staphylococcus aureus ATCC43300 infected in sepsis mouse model assessed as reduction in spleen inflammation at 5 mg/kg pre-infected with bacteria for 1 hrs followed by compound administration at 12 hrs interval for 2 days by H and E staining based analysis. In kind it is functional, organism-based. As to conditions: time 2.0 day.

Data set [6] concerns Staphylococcus aureus. The experiment in a line: Antibacterial activity against Staphylococcus aureus ATCC43300 infected in sepsis mouse model assessed as reduction in kidney inflammation at 5 mg/kg pre-infected with bacteria for 1 hrs followed by compound administration at 12 hrs interval for 2 days by H and E staining based analysis. As to conditions: time 2.0 day. It is filed as functional, organism-based.

A further data set concerns Escherichia coli. The experiment in a line: Antibacterial activity against penicillin-susceptible Escherichia coli ATCC25922 by broth microdilution method. It is filed as functional.
The test system of data set [7] is Staphylococcus aureus. The experiment in a line: Drug resistance, ratio of MIC for Staphylococcus aureus ATCC43300 measured after 17 passages to MIC for Staphylococcus aureus ATCC43300 measured after first exposure. It is filed as functional.
Data set [8] is described as follows: Hemolytic activity in red blood cells (unknown origin). In kind it is toxicity, cell-based, Erythrocyte.
Data set [9] has as its system Staphylococcus epidermidis. The experiment in a line: Antibacterial activity against erythromycin-susceptible Staphylococcus epidermidis ATCC12228 by broth microdilution assay. In kind it is functional.
For data set [10], the system named is Staphylococcus aureus. The experiment in a line: Antibacterial activity against penicillin-resistant Staphylococcus aureus ATCC43300 by broth microdilution assay. In kind it is functional.
Data set [11] in a line: Selectivity index, ratio of HC50 for hemolytic activity in red blood cells (unknown origin) to MIC for antibacterial activity against penicillin-resistant Staphylococcus aureus ATCC43300. In kind it is toxicity, cell-based, RBC. As to conditions: read-out: Selectivity Index.
In data set [12] the test system is Staphylococcus aureus. The experiment in a line: Antibacterial activity against erythromycin susceptible Staphylococcus aureus ATCC25923 by broth microdilution assay. In kind it is functional.
Data set [13] relates to Staphylococcus aureus. The experiment in a line: Antibacterial activity against penicillin-resistant Staphylococcus aureus ATCC31007 by broth microdilution assay. It is filed as functional.
A short description of data set [14]: Selectivity index, ratio of HC50 for hemolytic activity in red blood cells (unknown origin) to MIC for antibacterial activity against penicillin-susceptible Escherichia coli ATCC25922. It is filed as toxicity, cell-based, RBC. The following applies: read-out: Selectivity Index.

In general, MIC refers to the lowest concentration found to suppress growth. The low end stands for greater potency, the high end for weaker potency. With `CN[C@H](CC(C)C)C(=O)N[C@H]1C(=O)N[C@@H](CC(N)=O)C(=O)N[C@H]2C(=O)N[C@H]3C(=O)N[C@H](C(=O)N[C@H](C(=O)O)c4cc(O)cc(O)c4-c4cc3ccc4O)[C@H](O)c3ccc(c(Cl)c3)Oc3cc2cc(c3O[C@@H]2O[C@H](CO)[C@@H](O)[C@H](O)[C@H]2O[C@H]2C[C@](C)(N)[C@H](O)[C@H](C)O2)Oc2ccc(cc2Cl)[C@H]1O` [VANCOMYCIN], the MIC in the data set with Bacillus subtilis was 0.5 µg/mL (≈ 0.345 µM); in the data set with Pseudomonas aeruginosa, over 128 µg/mL; in the data set with Klebsiella pneumoniae, 128 µg/mL (≈ 88.3 µM); in the data set with Acinetobacter baumannii, 16 µg/mL (≈ 11 µM); in the data set with Enterococcus faecalis, 2 µg/mL (≈ 1.38 µM); against Escherichia coli, 128 µg/mL (≈ 88.3 µM). For the same compound, the outcome in the data set on Staphylococcus aureus [1], in the data set on Staphylococcus aureus [2], in the data set with Staphylococcus aureus [3], with Staphylococcus aureus [4], in the data set on Staphylococcus aureus [5] and with Staphylococcus aureus [6] was Active.

Take `CCn1cc(C(=O)O)c(=O)c2cc(F)c(N3CCNCC3)cc21` [NORFLOXACIN]: the Ratio in the data set on Staphylococcus aureus [7] was 256.

One may read the HC50 as the concentration that lyses half of the red blood cells. `CCCC[N+](C)(C)CCCCCOc1ccc(C(=O)/C=C/c2ccccc2)cc1.[Br-]`: in data set [8], the HC50 turned out to be 538 µg/mL. The MIC against Bacillus subtilis is 32 µg/mL; in the data set on Pseudomonas aeruginosa, over 128 µg/mL; in [9] it was 16 µg/mL; with Staphylococcus aureus [10], 32 µg/mL; against Staphylococcus aureus [12], 8 µg/mL; in the data set with Klebsiella pneumoniae it was 64 µg/mL. For the same compound, the MIC in the data set with Acinetobacter baumannii was 128 µg/mL; with Enterococcus faecalis, 32 µg/mL; in the data set with Escherichia coli it was over 128 µg/mL; in the data set with Staphylococcus aureus [13] it was 64 µg/mL. Besides, in data set [11], the selectivity ratio was 16.8.

In data set [8], `O=C(/C=C/c1ccccc1)c1ccc(OCCC[n+]2ccc(NC(=O)c3ccc4ccccc4c3)cc2)cc1.[Br-]` had an HC50 of over 1280 µg/mL. Also, the MIC (against Bacillus subtilis; in the data set with Pseudomonas aeruginosa; in [9]; against Staphylococcus aureus [10]; against Staphylococcus aureus [12]; against Klebsiella pneumoniae) was over 128 µg/mL each time. For the same compound, the MIC in the data set with Acinetobacter baumannii, with Enterococcus faecalis, in the data set with Escherichia coli and with Staphylococcus aureus [13] was over 128 µg/mL each time. The selectivity ratio in data set [11] was over 10.

In turn, `CCCC(=O)Nc1cc[n+](CCCOc2ccc(C(=O)/C=C/c3ccccc3)cc2)cc1.[Br-]` returned an HC50 in data set [8] of over 1280 µg/mL. Also, the MIC (with Bacillus subtilis; in the data set with Pseudomonas aeruginosa; in [9]; against Staphylococcus aureus [10]; against Staphylococcus aureus [12]; against Klebsiella pneumoniae) was over 128 µg/mL throughout. Moreover, the MIC in the data set on Acinetobacter baumannii, against Enterococcus faecalis, against Escherichia coli and in the data set on Staphylococcus aureus [13] was over 128 µg/mL in each case. The selectivity ratio in [11] is over 10.

Compound `CCCCCCCCCC(=O)Nc1cc[n+](CCCOc2ccc(C(=O)/C=C/c3ccccc3)cc2)cc1.[Br-]` showed a concentration for 50% haemolysis (HC50) in data set [8] of 871 µg/mL. Besides, the minimum inhibitory concentration (MIC) against Bacillus subtilis is 2 µg/mL; in the data set on Pseudomonas aeruginosa, over 128 µg/mL; in [9], 16 µg/mL; against Staphylococcus aureus [10] it was 4 µg/mL; with Staphylococcus aureus [12], 4 µg/mL; in the data set on Klebsiella pneumoniae it was over 128 µg/mL. For the same compound, the MIC in the data set with Acinetobacter baumannii was 64 µg/mL; in the data set with Enterococcus faecalis, 8 µg/mL; against Escherichia coli it was 32 µg/mL; with Staphylococcus aureus [13], 4 µg/mL. In addition, the selectivity ratio in data set [11] was determined as 218.

`CCCCCCCC[N+](C)(C)CCCCCOc1ccc(C(=O)/C=C/c2ccccc2)cc1.[Br-]` displayed an HC50 in data set [8] of 50.5 µg/mL. Moreover, the minimum inhibitory concentration (MIC) in the data set on Bacillus subtilis was 4 µg/mL; in the data set on Pseudomonas aeruginosa it was over 128 µg/mL; in data set [9] it was 4 µg/mL; in the data set with Staphylococcus aureus [10], 2 µg/mL; in the data set with Staphylococcus aureus [12], 2 µg/mL; in the data set on Klebsiella pneumoniae, 8 µg/mL. In addition, the MIC with Acinetobacter baumannii is 8 µg/mL; in the data set with Enterococcus faecalis, 2 µg/mL; in the data set on Escherichia coli, 128 µg/mL; against Staphylococcus aureus [13], 4 µg/mL. The selectivity ratio in [11] stood at 25.2.

With `CCCCCCCCCCCC[N+](C)(C)CCCCCOc1ccc(C(=O)/C=C/c2ccccc2)cc1.[Br-]`, the concentration for 50% haemolysis (HC50) in data set [8] worked out at 167 µg/mL. For the same compound, the MIC was 8 µg/mL in the data set on Bacillus subtilis; over 128 µg/mL in the data set on Pseudomonas aeruginosa; 8 µg/mL in data set [9]; 8 µg/mL in the data set with Staphylococcus aureus [10]; 8 µg/mL against Staphylococcus aureus [12]; over 128 µg/mL against Klebsiella pneumoniae. The minimum inhibitory concentration (MIC) against Acinetobacter baumannii was 128 µg/mL; against Enterococcus faecalis, 16 µg/mL; in the data set on Escherichia coli, over 128 µg/mL; against Staphylococcus aureus [13], 16 µg/mL. The selectivity ratio in data set [11] stood at 20.9.

In data set [8], `CCCCCCCCCCCC[N+](C)(C)CCCOc1ccc(C(=O)/C=C/c2ccccc2)cc1.[Br-]` gave an HC50 of 220 µg/mL. In addition, the MIC in the data set with Bacillus subtilis was 4 µg/mL; in the data set on Pseudomonas aeruginosa it was over 128 µg/mL; in [9], 8 µg/mL; against Staphylococcus aureus [10] it was 4 µg/mL; with Staphylococcus aureus [12], 4 µg/mL; with Klebsiella pneumoniae, 64 µg/mL. The MIC in the data set with Acinetobacter baumannii was 64 µg/mL; with Enterococcus faecalis it was over 128 µg/mL; in the data set with Escherichia coli it was 128 µg/mL; in the data set with Staphylococcus aureus [13] it was 16 µg/mL. Moreover, the selectivity ratio in data set [11] was found to be 55.1.

In the case of `CCCCCC[N+](C)(C)CCCOc1ccc(/C=C/C(=O)c2ccc(OCCC[N+](C)(C)CCCCCC)cc2)cc1.[Br-].[Br-]`, in data set [8], the HC50 is 1130 µg/mL. For the same compound, the MIC with Bacillus subtilis is 0.5 µg/mL; with Pseudomonas aeruginosa it was 32 µg/mL; in [9], 0.5 µg/mL; in the data set on Staphylococcus aureus [10], 1 µg/mL; against Staphylococcus aureus [12] it was 1 µg/mL; against Klebsiella pneumoniae it was 4 µg/mL. Besides, the MIC came to 16 µg/mL in the data set with Acinetobacter baumannii, 1 µg/mL against Enterococcus faecalis, 4 µg/mL in the data set on Escherichia coli and 1 µg/mL against Staphylococcus aureus [13]. Besides, the selectivity ratio was found to be 1130 in [11] and 283 in data set [14].
